Measurements published in patent US12616698B2, “Methods for reducing liver fat and for treating fatty liver disorders” (Corcept Therapeutics Incorporated, priority 2021, dated 2026).
Entries after “also recorded” stand apart in the source; their conditions may differ.

What was measured:
[1] = system: patients presumed to have NASH; assay: Phase 2a study: NASH biomarkers (pro-C3, ELF score and its components); assay type: in vivo, human; settings: for Enhanced Liver Fibrosis (ELF) Score, Change from Baseline mean / Enhanced Liver Fibrosis (ELF) Score, Value mean: unitless
Experimental: Measures of the effectiveness of miricorilant versus placebo in reducing liver fat were assessed by magnetic resonance imaging (MRI). The change from baseline MRI measurements relative to MRI measurements taken following a course of daily miricorilant or placebo administration were assessed by magnetic resonance imaging-proton density fat fraction (MRI-PDFF). Additionally, effects of miricorilant may be assessed by measuring one or more of the following, either by comparing change from baseline after one or more days of miricorilant administration, or by comparing measurements in patients administered miricorilant versus patients administered placebo: change in liver fat assessed by MRI-PDFF; change in AST, ALT, and gamma-glutamyl transferase (GGT); change in propeptide of type III collagen (pro-C3); change in enhanced liver fibrosis (ELF) score and its components (hyaluronic acid, tissue inhibitor of metalloproteinases-1 [TIMP-1], type III procollagen [PIIINP]); change in ACTH, serum cortisol, and serum aldosterone (pharmacodynamic assessments); change in Homeostatic Model Assessment of Insulin Resistance (HOMA-IR); change in absolute body weight; and other measurements. […] For patients with diabetes, change in HbA1c and change in fasting blood glucose may be measured to assess the effects of miricorilant. Change in blood pressure may be measured in patients with high blood pressure to assess the effects of miricorilant. Pharmacokinetic (PK) parameters were estimated from steady state plasma concentrations of miricorilant.
NASH biomarkers include AST, ALT, GGT, pro-C3, ELF score and its components (hyaluronic acid, TIMP-1, PIIINP). Blood for measuring levels of AST, ALT, and GGT (as part of the chemistry panel) will be collected. Small fragments of collagen, called propeptides, are released during fibrosis. Pro-C3 is the propeptide of type III collagen and detection of pro-C3 is anticipated to reflect the formation of new fibrotic tissue in the liver (Vilar-Gomez and Chalasani 2018). Blood samples for measuring pro-C3 were collected. […] Each of these markers is measured by an immunoassay and an ELF score is generated, from which a level of fibrosis severity can be determined.
(Units are nanograms per milliliter (ng/mL) except for the enhanced liver fibrosis score (ELF), which is unitless.)

Male C57 mice = assay: High-fat diet mice: liver triglycerides and plasma AST; assay type: in vivo, mouse; settings: 60 mg/kg once a day oral gavage
Experimental: Male C57 mice (n=24) were given a diet containing […] (a high-fat, “fast food” diet) for 3 weeks. Miricorilant (60 mg/kg) was administered once a day via oral gavage. Plasma aspartate aminotransferase (AST) was measured on days 3, 7, 12, and 18 and 6 mice were sacrificed each week at weeks 1, 2, and 3 for the miricorilant groups and at week 3 for the control (high-fat diet, no miricorilant) group for assessment of liver triglycerides.

C57BL/6J male mice = assay: AMLN diet NASH mouse model, once per day oral dosing; assay type: in vivo; settings: 30 mg/kg/day orally once per day, 8 weeks
Experimental: Two studies were conducted in C57BL/6J male mice (n=12 per group) maintained on a diet high in fat (40%), cholesterol (2%) and fructose (20%; referred to as the AMLN diet: see, e.g., Tolbol et al., World Journal of Gastroenterology, 24(2):179-194 (2018)) for 42 weeks before dosing with miricorilant was initiated. In the first study, all animals ate the AMLN diet, and received either placebo, 30 mg/kg miricorilant, or 60 mg/kg mifepristone once per day orally. […] All animals received the AMLN diet for 42 weeks prior to receiving their first dose of study drug or placebo. 4 weeks prior to receiving that first dose, a liver biopsy and histological examination of biopsy tissue was performed for each animal; 3 weeks prior to receiving that first dose, animals were randomized into three groups: control, miricorilant, or mifepristone. […] At 56 days (week 8) after initiation of drug administration, plasma ALT, AST, triglycerides, total cholesterol, and miricorilant levels were measured, and animals were sacrificed, liver necropsies were performed, liver histological ((NAFLD Activity Score, Fibrosis Stage, steatosis (scored using hematoxylin and eosin staining (HE)), col1a (scored using immunohistochemistry (IHC)) and Galectin-3 (IHC)) and liver biochemical measurements (including liver triglycerides and total cholesterol) were made, and liver and plasma samples were obtained for genetic ((e.g., RNA sequencing) and other analyses.
Thus, in these studies, the mice were subjected to a liver biopsy approximately 4 weeks before initiation of dosing with miricorilant and only mice with confirmed fibrosis (fibrosis stage ≥1) and steatosis (score ≥2) were entered into the study. […] Body weight and food consumption were monitored throughout the study.
Liver samples were fixed in formalin, paraffin embedded and sections were stained with hematoxylin and eosin (H&E) and Sirius Red. Samples were scored for NAS and fibrosis stage using the clinical criteria outlined by Kleiner et al., Hepatology 41:1313-1321 (2005). […]

O=c1[nH]c(=O)c(Cc2cccc(C(F)(F)F)c2)c([C@H]2CC[C@H](c3ccccc3)CC2)[nH]1 [miricorilant, (E)-6-(4-Phenylcyclohexyl)-5-(3-trifluoromethylbenzyl)-1H-pyrimidine-2,4-dione]
Hyaluronic Acid, Change from Baseline mean ([1]; 600 mg Miricorilant (N = 5)): -17.8 ng/mL | Hyaluronic Acid, Value mean ([1]; 600 mg Miricorilant (N = 5)): 70.7 ng/mL | Propeptide of Type III Collagen (pro-C3), Change from Baseline mean ([1]; 600 mg Miricorilant (N = 5)): 0.5 ng/mL | Propeptide of Type III Collagen (pro-C3), Value mean ([1]; 600 mg Miricorilant (N = 5)): 10.7 ng/mL | Tissue Inhibitor of Metalloproteinases-1 (TIMP-1), Change from Baseline mean ([1]; 600 mg Miricorilant (N = 5)): 3.2 ng/mL | Tissue Inhibitor of Metalloproteinases-1 (TIMP-1), Value mean ([1]; 600 mg Miricorilant (N = 5)): 249.5 ng/mL | Type III Procollagen (PIIINP), Change from Baseline mean ([1]; 600 mg Miricorilant (N = 5)): -0.17 ng/mL | Type III Procollagen (PIIINP), Value mean ([1]; 600 mg Miricorilant (N = 5)): 9.3 ng/mL | Enhanced Liver Fibrosis (ELF) Score, Change from Baseline mean ([1]; 600 mg Miricorilant (N = 5)): −0.05 | Enhanced Liver Fibrosis (ELF) Score, Value mean ([1]; 600 mg Miricorilant (N = 5)): 9.4 | Hyaluronic Acid, Change from Baseline mean ([1]; 900 mg Miricorilant (N = 3)): -50.0 ng/mL | Hyaluronic Acid, Value mean ([1]; 900 mg Miricorilant (N = 3)): 110.9 ng/mL | Propeptide of Type III Collagen (pro-C3), Change from Baseline mean ([1]; 900 mg Miricorilant (N = 3)): -7.9 ng/mL | Propeptide of Type III Collagen (pro-C3), Value mean ([1]; 900 mg Miricorilant (N = 3)): 24.1 ng/mL | Tissue Inhibitor of Metalloproteinases-1 (TIMP-1), Change from Baseline mean ([1]; 900 mg Miricorilant (N = 3)): -79.4 ng/mL | Tissue Inhibitor of Metalloproteinases-1 (TIMP-1), Value mean ([1]; 900 mg Miricorilant (N = 3)): 402.1 ng/mL | Type III Procollagen (PIIINP), Change from Baseline mean ([1]; 900 mg Miricorilant (N = 3)): -5.35 ng/mL | Type III Procollagen (PIIINP), Value mean ([1]; 900 mg Miricorilant (N = 3)): 17.7 ng/mL | Enhanced Liver Fibrosis (ELF) Score, Change from Baseline mean ([1]; 900 mg Miricorilant (N = 3)): −0.90 | Enhanced Liver Fibrosis (ELF) Score, Value mean ([1]; 900 mg Miricorilant (N = 3)): 10.6 | Liver triglycerides (Male C57 mice; high-fat diet for 3 weeks, starting at week 1, vs high-fat diet control (FIG. 6A)): rapid reduction | Plasma AST (Male C57 mice; high-fat diet, no change in dose (FIG. 6B)): transient increase at 2 weeks but normalized by 3 weeks | NAFLD Activity Score (NAS) (C57BL/6J male mice; AMLN diet, vs control (FIG. 7A)): reduced; also recorded: significant reductions; also recorded: either did not increase, or decreased | Hepatic ballooning portion of the NAFLD score (liver cell degeneration) (C57BL/6J male mice; post- vs pre-study biopsy (FIG. 7B)): reduced | Fibrosis stage score, post-study compared to pre-study (C57BL/6J male mice; none showed an increased score): some mice in the miricorilant group showed decreased post-study fibrosis stage score
